In US20130243847A1, “ACTIVATED CREATININE AND PRECURSORS THEREOF AS ANTIBACTERIAL AGENTS, COMPOSITIONS AND PRODUCTS CONTAINING SUCH AGENTS AND USE THEREOF” (BOARD OF REGENTS OF THE UNIVERSITY OF NEBRASKA, priority 2010, published 2013):

Assays:
Assay type in all cases: cell-based
Staphylococcus aureus = test: Disc assay of creatinine activated with different acids (Example 1, FIG. 1); settings: for antibacterial activity of acid in Eridex alone: without creatinine at pH 5.5; for antibacterial activity after acid activation (FIG. 1): 5 mg acidified creatinine in Eridex on 6 mm disc, pH 5.0-5.5, S. aureus 10^5 per mL
Protocol: A 2 molar solution of anhydrous creatinine (Sigma-Aldrich Chemical Co. St. Louis, Mo.) was prepared in water (113 mg in 0.5 ml H2O) and adjusted to pH 5.0-5.5 with different acids. Twenty five microliters of each pH adjusted solution was added to 30 milligrams of a powdered carrier, Eridex™, (crystalline sugar alcohol) (Cargill Inc. Cedar Rapids, Iowa), and stirred into a thickened slurry. Approximately 50 microliters of each mixture, containing 5 mg of acidified creatinine, was applied to a 6 mm disc and inverted onto a brain heart infusion agar plate that was spread one hour prior with Staphylococcus aureus diluted to 10^5 organisms per milliliter. Plates were incubated at 37° C. overnight and the clear zones showing inhibition of bacterial growth were measured. Each sample was run in duplicate and reported as an average +/−1 mm of the two measurements. Creatinine HCl was used as an internal standard on each plate to provide uniformity from plate to plate (measurements varied <0.5 mm). Hydrochloride sig, a commercial creatinine HCl salt from Sigma-Aldrich, was used at pH 5.0 with no adjustment.

S. aureus = test: Disc diffusion assay of creatine esters (Example 6); settings: approx. 50 μL anhydrous polyethylene glycol carrier with 28% by weight agent
Protocol: Four (4) different creatine esters were prepared according to the method of U.S. Pat. No. 6,897,334 to Vennerstrom. The esters thus prepared were activated in the manner described herein to impart antibacterial activity thereto. Four (4) test formulations were prepared, each including approximately 50 μL of an anhydrous polyethylene glycol carrier containing 28% by weight of a different creatine ester. Each formulation was added to a 6 mm disc and inverted onto a brain heart infusion agar plate that was previously spread with S. aureus at 10^5 organisms per mL. Plates were incubated at 37° C. overnight and the clear zones showing inhibition of bacterial growth were measured.

[1] = tested on: Escherichia coli laboratory strain 35150; test: Disc diffusion assay, CEE vs gentamicin; settings: E. coli laboratory strain 35150; 50 mg anhydrous topical cream with 28% by weight agent; gentamicin 10 μg disc
Protocol: (§1) This testing involved the use of 50 mg of an anhydrous topical cream containing the antibacterial agent of the invention in an amount of 28% by weight and 10 μg of gentamicin, impregnated into a standard commercially available disc (Remel, Lenoxa Kans.).

[2] = tested on: Staphylococcus aureus methicillin resistant (MRSA); test: Disc diffusion assay, CEE vs gentamicin; settings: S. aureus MRSA; 50 mg anhydrous topical cream with 28% by weight agent; gentamicin 10 μg disc
Protocol: as §1

[3] = tested on: Enterococcus faecium vancomycin resistant (VRE); test: Disc diffusion assay, CEE vs gentamicin; settings: E. faecium VRE; 50 mg anhydrous topical cream with 28% by weight agent; gentamicin 10 μg disc
Protocol: as §1

[4] = tested on: Enterococcus faecalis laboratory strain 29212; test: Disc diffusion assay, CEE vs gentamicin; settings: E. faecalis laboratory strain 29212; 50 mg anhydrous topical cream with 28% by weight agent; gentamicin 10 μg disc
Protocol: as §1

[5] = tested on: Staphylococcus aureus laboratory strain 29213; test: Disc diffusion assay, CEE vs gentamicin; settings: S. aureus laboratory strain 29213; 50 mg anhydrous topical cream with 28% by weight agent; gentamicin 10 μg disc
Protocol: as §1

[6] = tested on: Acinetobacter baumannii high level resistance (HLR); test: Disc diffusion assay, CEE vs gentamicin; settings: A. baumannii HLR; 50 mg anhydrous topical cream with 28% by weight agent; gentamicin 10 μg disc
Protocol: as §1

[7] = tested on: Candida albicans laboratory strain 24433; test: Disc diffusion assay, CEE vs gentamicin; settings: C. albicans laboratory strain 24433; 50 mg anhydrous topical cream with 28% by weight agent; gentamicin 10 μg disc
Protocol: as §1

[8] = tested on: Pseudomonas aeruginosa laboratory strain 27853; test: Disc diffusion assay, CEE vs gentamicin; settings: P. aeruginosa laboratory strain 27853; 50 mg anhydrous topical cream with 28% by weight agent; gentamicin 10 μg disc
Protocol: as §1

[9] = tested on: Pseudomonas aeruginosa high level resistance (HLR); test: Disc diffusion assay, CEE vs gentamicin; settings: P. aeruginosa HLR; 50 mg anhydrous topical cream with 28% by weight agent; gentamicin 10 μg disc
Protocol: as §1

[10] = tested on: Escherichia coli beta lactamase producer (ESBL); settings: E. coli ESBL; 50 mg anhydrous topical cream with 28% by weight agent; gentamicin 10 μg disc
Protocol: as §1

## CC(=O)O [acetic acid, reference compound]
Staphylococcus aureus
  antibacterial activity of acid in Eridex alone: no antibacterial activity

## citrate
Staphylococcus aureus
  antibacterial activity after acid activation (FIG. 1): significant activity

## fumaric
Staphylococcus aureus
  antibacterial activity after acid activation (FIG. 1): little to no antibacterial activity

## O=C(O)CC(O)(CC(=O)O)C(=O)O [citric acid, reference compound]
Staphylococcus aureus
  antibacterial activity of acid in Eridex alone: no antibacterial activity

## CC(=O)O [acetate]
Staphylococcus aureus
  antibacterial activity after acid activation (FIG. 1): significant activity
Staphylococcus aureus; listed as creatinine activated with acetic acid
  antibacterial activity after acid activation (FIG. 1): substantially greater antibacterial activity than creatinine activated with nitric or hydrochloric acid

## CCCCCCCCOC(=O)CN(C)C(=N)N [Octyl]
S. aureus
  Zone of Inhibition: 27 mm

## sulfuric
Staphylococcus aureus
  antibacterial activity after acid activation (FIG. 1): little to no antibacterial activity

## Gentamicin [Gn, reference compound]
[1]
  Zone of Inhibition: 21 mm
[2]
  Zone of Inhibition: 7 mm
[3]
  Zone of Inhibition: 8 mm
[4]
  Zone of Inhibition: 14 mm
[5]
  Zone of Inhibition: 24 mm
[6]
  Zone of Inhibition: 6 mm
[7]
  Zone of Inhibition: 8 mm
[8]
  Zone of Inhibition: 21 mm
[9]
  Zone of Inhibition: 8 mm
[10]
  Zone of Inhibition: 24 mm

## CN(CC(=O)OCc1ccccc1)C(=N)N [Benzyl]
S. aureus
  Zone of Inhibition: 23 mm
